According to US20010010814A1, “[…] ENCODING PRO-APOPTOTIC BAX GENE AND USES THEREOF” (priority 1998, published 2001):
Where two headings read alike, the source gives them in different places.

Tests used:
[1] = system: SW626 cells; assay: MTS cell viability assay, SW626; format: cell-based; details: Homo sapiens, SW626, 48 h, read-out: IC50 of taxol
Experimental: (§1) The replication-incompetent adenoviral type 5 recombinant vectors encoding bax (Ad/Bax), and Cre recombinase (Ad/Cre), were generated as described. Ad/LacZ, encoding the E. coli LacZ gene, was provided by Robert Gerald (The Center for Transgene Technology and Gene Therapy, Leuven. Belgium). All recombinant adenoviruses were propagated in 293 cells and purified by centrifugation in CsCl gradients by a standard protocol. For viral infection in dishes, the cells were plated in 6 or 96 wells the day before the experiment. The viruses were then added at a designed multiplicity of infection (moi) and incubated for 1 to 2 hours. […]
(§2) Cells were seeded in either 6-well or 96-well plates 24 hours before viral infection. […] Cell viability was determined using a calorimetric method with 3-(4,5-dimehtylthiazol-2-yl)-5-(3-carboxymethoxyphenyl)-2-(4-sulfophenyl)-2H-tetrazolium (MTS) according to the instructions of the manufacturer (Promega). […]
(§3) To determine the cytotoxic effects of Bax, five ovarian cancer cell lines were co-infected with Ad/Bax and Ad/Cre or Ad/lacZ and Ad/Cre at ratio of 5 to 1 at a total moi of 100. After 48 hours, cell viability was determined by MTS assays (FIG. 11). […]
(§4) Stable overexpression of Bax in some cancer cell lines synergizes the killing effect of chemotherapy or radiotherapy. […] Cell viability was measured by an MTS assay. […]

[2] = system: SKOV3.ip1 cells; assay: MTS cell viability assay, SKOV3.ip1; format: cell-based; details: Homo sapiens, 48 h, read-out: IC50 of taxol
Experimental: as §1, §2, §3, §4

[3] = system: primary ovarian cancer cells from ascites of patients; assay: MTS cell viability assay, primary ovarian cancer cells; format: cell-based, human
Experimental: Primary ovarian cancer cells were isolated by affinity purification from ascites obtained from patients with ovarian cancer. Fresh ascites was centrifuged to collect cells in suspension. The cells were then washed and resuspended in PBS with 0.1% BSA. The CC49 antibody (provided by Dr. Jeffrey Schlom, NIH, Bethesda, Md.), which specifically recognizes the pancarcinomatous antigen TAG-72, was added to the cell suspension at a concentration of 1 μg/10^7 cells, and incubated at 4° C. for one hour. To isolate the immuno-complex formed by the CC49 antibody and the TAG-72 expressing tumor cells, magnetic Dynabeads (Dynal Inc. Lake success, N.Y.) coated with a secondary anti-panmouse IgG antibody were added at a ratio of 4 beads/cell, according to the protocol of the manufacturer. The bead-targeted complexes were then washed and captured with a magnetic particle concentrator (Dynal Inc.). Finally, the purified cells were released from the beads by brief trypsinization and recovered in RPMI complete medium.
as §2

[4] = combined treatment with Bax (Ad/Bax plus Ad/Cre, moi 100)

CC(=O)O[C@H]1C(=O)[C@@]2(C)[C@H]([C@H](OC(=O)c3ccccc3)[C@]3(O)C[C@H](OC(=O)[C@H](O)[C@@H](NC(=O)c4ccccc4)c4ccccc4)C(C)=C1C3(C)C)[C@]1(OC(C)=O)CO[C@@H]1C[C@@H]2O [taxol]
IC50 [1, 4]: 5 µg/mL | IC50 ([1]; control cells): 31 µg/mL | IC50 [2, 4]: 13 µg/mL | IC50 ([2]; control cells): 39 µg/mL | cell death (MTS) ([3]; taxol 20 μg/ml alone, 48 hours): 15% | cell death (MTS) ([3]; taxol 20 μg/ml combined with Bax (Ad/Bax and Ad/Cre, 200 moi)): over 50%
